How the values were obtained:
cell culture GMK-AH (1D) = assay: Evaluation of cytotoxicity in cell culture GMK-AH (1D); assay type: cell-based
Experimental: Evaluation of the cytotoxicity of the test compound using a constant cell culture GMK-AH (1D).
To form a continuous monolayer, 1 ml of cell suspension with a density of 200 thousand/ml was added into each tubes and incubate at a temperature (37.0±0.5)° C., 5% CO2.
Then the growth medium was removed and fresh medium containing various concentrations of test drugs (from 1000 to 6.25 µg/ml) was added. The tubes were then incubated for 5 days at a temperature (37.0+0.5)° C., 5% CO2.
Using a light microscope, the state of the monolayer cells was observed: partial or complete destruction of the monolayer cells, damage to individual cells, cell syncytium formation. Control samples were tubes with a monolayer, which included maintenance medium without a drug.

West Nile virus = assay: Effectiveness in cell culture GMK-AH (1D) against West Nile virus; assay type: cell-based
Experimental: Monolayer of the cell culture GMK-AH (1D) was infected with West Nile virus in a dose of 0.05 PFU/cell. Virus was adsorbed at 37° C., 5% CO2, for 60 minutes. At the end of the incubation, the monolayer was washed three times with maintenance medium containing 100 u/ml penicillin and streptomycin to remove non-adsorbed virus, and test compounds were added at a concentration of ½ MIC. The substance was dissolved in maintenance medium to the desired concentration. For each compound, not less than 10 tubes with a monolayer of cells were used. Incubation was performed at 37° C., 5% CO2 for 48 hours. Next, the cryodestruction of cells was performed and the samples were combined. The infectious titer in the combined samples was determined by titration by forming negative colonies under the agar coating in the cell culture GMK-AH (1D).

[1] = cytotoxicity, GMK-AH (1D), 5 days
[2] = 250.0 μg/ml (½ MIC), GMK-AH (1D), 0.05 PFU/cell, 48 hours

With `CSc1nc2[nH]nc([N+](=O)[O-])c(=O)n2n1` [Claimed compound, 2-methylsulfanyl-6-nitro-7-oxo-1,2,4-triazolo[5,1-c] [1,2,4]triazinid L-arginine dihydrate] the “The frequency of the cytopathic effect of the claimed compound” value (shortened to “The frequency”) (cell culture GMK-AH (1D); concentration 7.8 mg/mL, GMK-AH (1D), 5 days) was 0/4, the “The frequency” value (cell culture GMK-AH (1D); concentration 15.5 mg/mL, GMK-AH (1D), 5 days) was 0/4 and the “The frequency” value (cell culture GMK-AH (1D); concentration 31.3 mg/mL, GMK-AH (1D), 5 days) was 0/4. The “The frequency” value (cell culture GMK-AH (1D); concentration 62.5 mg/mL, GMK-AH (1D), 5 days) was 0/4, the “The frequency” value (cell culture GMK-AH (1D); concentration 250.0 mg/mL, GMK-AH (1D), 5 days) was 0/4 and the “The frequency” value (cell culture GMK-AH (1D); concentration 500.0 mg/mL, GMK-AH (1D), 5 days) was 0/4. For the same molecule, the “The frequency” value (cell culture GMK-AH (1D); concentration 1000.0 mg/mL, GMK-AH (1D), 5 days) was 2/4, the “The frequency” value (cell culture GMK-AH (1D); concentration 125,0 mg/mL, GMK-AH (1D), 5 days) was 0/4 and the “visible changes in the cell culture” value (cell culture GMK-AH (1D); concentration of 500 μg/ml, GMK-AH (1D)) was “did not cause any visible changes”. For the same molecule, the “toxicity in the concentrations used” value (cell culture GMK-AH (1D); concluding statement) was “nontoxic”, the “½ MIC” value (cell culture GMK-AH (1D); cytotoxicity, GMK-AH (1D)) was 250.0 µg/mL and the MIC (cell culture GMK-AH (1D); [1]) was 500.0 µg/mL. For the same molecule, the cytotoxic concentration (cell culture GMK-AH (1D); [1]) was 1000.0 µg/mL, the “Level of the virus accumulation” value (West Nile virus; [2]) was 4.2 lg PFU/ml and the “Reduction of the virus accumulation” value (West Nile virus; [2]) was 2.3 lg PFU/ml. The inhibiting factor (West Nile virus; Table 2, GMK-AH (1D)) was 99.5%, the “inhibits the reproduction of West Nile virus” value (West Nile virus; Table 2, GMK-AH (1D)) was 2.31 g and the “antiviral activity in vitro against West Nile virus” value (West Nile virus; concluding statement) was “significant antiviral activity”.

Source: US9790227B2, “2-methylsulphanyl-6-nitro-7-oxo-1, 2, 4-triazolo [5, 1-C] [1, 2, 4] triazinide L-arginine dihydrate active toward west nile virus” (LIMITED LIABILITY COMPANY “URAL CENTER OF BIOPHARMACEUTICAL …, priority 2013, dated 2017)
